Measured values taken from publication PMC3909264, “A Novel Acylaminoimidazole Derivative, WN1316, Alleviates Disease Progression via Suppression of Glial Inflammation in ALS Mouse Model” (PLoS ONE, 2014).
Where a name gives a salt, the structure may show the parent alone.

How the values were obtained:
[1] = test system: ALS(SOD1^H46R) mice; experiment: Histopathology, immunohistochemistry and Western blot of spinal cord, ventral root and muscle of treated ALS(SOD1^H46R) mice; assay type: in vivo, mouse
Experimental: At 21–22 weeks of age (late-symptomatic stage), mice were anesthetized with 2% isoflurane by inhalation. Anesthetized mice were transcardially perfused with physiological saline containing 10% heparin, followed by 4% paraformaldehyde (PFA) in 0.1 M phosphate buffer (PB) (pH 7.2). Spinal cord was removed, and lumbar segment was dissected.
For the preparation of paraffin-embedding tissue, lumbar segment was post-fixed with the same fixative for 48 h at 4°C and embedded in paraffin. Serial transverse sections (6 µm thickness) of lumbar segment (L4–L5) were sliced and stained with hematoxylin and eosin (H&E) for histopathological evaluation.
For the preparation of frozen-embedding tissue, lumbar segment was post-fixed with 4% PFA in 0.1 M PB (pH 7.2) for 24 h at 4°C, and then processed in 30% sucrose in 0.1 M PB (pH 7.2) containing 0.1% NaN3 for 96 h at 4°C (for cryoprotection) followed by frozen-embedding. Ten µm frozen sections were cut on a cryostat and used for fluorescent immunohistochemistry.
Immunohistochemical analyses with anti-ChAT, anti-Iba-1, anti-GFAP, anti-MAP2, anti-IL-1β and anti-8-OHdG antibodies were performed. For immunostaining with anti-ChAT antibody, the deparaffinized sections from late-symptomatic mice were pre-treated by autoclaving at 121°C for 5 min in HISTOFINE antigen retrieval solution (pH 9.0) (Nichirei). For immunostaining with anti-Iba-1 antibody, the deparaffinized sections from late-symptomatic mice were pre-treated by autoclaving at 121°C for 10 min in 10 mM citrate buffer (pH 6.0). For immunostaining with anti-GFAP antibody, the deparaffinized sections were used without any pretreatment. The sections were incubated with 0.3% H2O2 in methanol for 30 min and then with phosphate-buffered saline (PBS) (pH 7.2) containing 0.3% Triton X-100 for 30 min. After the treatment with PBS containing 5% normal goat serum (NGS) (Vector Laboratories)/0.05% Triton X-100 or 5% normal rabbit serum (NRS) (Vector Laboratories)/0.05% Triton X-100 for 1 h at room temperature, the sections were incubated with either anti-GFAP or anti-Iba-1 antibody in PBS containing 1.5% NGS/0.05% Triton X-100 or with anti-ChAT antibody in PBS containing 1.5% NRS/0.05% Triton X-100 overnight at 4°C. The sections were then incubated with HISTOFINE simple stain mouse MAX-PO (R) (Nichirei) or with HISTOFINE simple stain mouse MAX-PO (G) (Nichirei) for 1 hr at room temperature. The sections were visualized using 0.05% 3,3-diaminobenzidine tetrahydrochloride (DAB) (Wako) and 0.015% H2O2 in 50 mM Tris-HCl (pH 7.5) buffer, and the DAB reaction products were observed under a light microscope (BIOREVO BZ-9000, KEYENCE).
For double-immunostaining using frozen section, sections from late-symptomatic mice were washed with PBS, and treated with PBS containing 3% normal horse serum (NHS) (Vector Laboratories)/0.3% Triton X-100 for 1 h at room temperature. The sections were incubated with anti-IL-1β antibody in PBS containing 0.01% Triton X-100 for 48 h at 4°C, and then were incubated with CF^TM488A donkey anti-goat IgG (H+L) (1∶400, Biotium) in PBS containing 0.01% Triton X-100 for 1 h at room temperature. Next, the sections were incubated with anti-GFAP, anti-Iba-1 or anti-MAP2 antibody in PBS containing 0.01% Triton X-100 overnight at 4°C, and then were incubated with CF^TM555 goat anti-rabbit IgG (H+L) (1∶400, Biotium) in PBS containing 0.01% Triton X-100 for 1 h at room temperature. Fluorescent signals were observed under a light microscope (BIOREVO BZ-9000, KEYENCE).
For double-immunostaining of deparaffinized tissue, sections from late-symptomatic mice were pre-treated by autoclaving at 121°C for 10 min in 10 mM citrate buffer (pH 6.0). After the treatment with PBS containing 5%NGS/0.05% Triton X-100, the sections were incubated with anti-8-OHdG and anti-GFAP, anti-Iba-1 or anti-MAP2 antibodies in PBS containing 1.5% NGS/0.05% Triton X-100 overnight at 4°C. […]

[2] = test system: Nrf2 signaling pathway in SH-SY5Y cells; experiment: Nrf2-regulated gene expression (RT-PCR, Western blot); assay type: cell-based, human; conditions: 10 µM, within 3 h
Experimental: Total RNA was extracted from cells using the TRIzol reagent (Invitrogen). Isolated total RNA was purified using the SV Total RNA Isolation System (Promega) according to the manufacturer’s instruction. RT-PCR was performed with QIAGEN onestep RT-PCR kit (QIAGEN). The housekeeping peptidylprolyl isomerase A (PPIA) gene was used as an internal control. PCR primers specific to each gene are as follows: ATF3, 5′-[…]-3′, and 5′-[…]-3′ (268 bp); GCLM, 5′-[…]-3′, and 5′-[…]-3′ (367 bp); HO-1, 5′-[…]-3′, and 5′-[…]-3′ (348 bp); NQO1, 5′-[…]-3′, and 5′-[…]-3′ (298 bp); Nrf2, 5′-[…]-3′, and 5′-[…]-3′ (263 bp); p21/CDKN1A, 5′-[…]-3′, and 5′-[…]-3′ (201 bp); p62/SQSTM1, 5′-[…]-3′, and 5′-[…]-3′ (330 bp); PPIA, 5′-[…]-3′, and 5′-[…]-3′ (184 bp). Amplified products were electrophoretically resolved by a 2.0% agarose gel, stained with ethidium bromide, and photographed under ultraviolet light.
SH-SY5Y cells (3×10^5 cells) were washed twice with ice-cold PBS and incubated in 1 ml of ice-cold 10% trichloroacetic acid for 30 min. Cells were centrifuged at 22,000×g for 15 min at 4°C and lysed by pipetting in 80 µl of 9 M urea containing 2% Triton X-100 and 1% dithiothreitol. After the addition of 20 µl of 10% lithium dodecyl sulfate and 2 µl of 2 M Tris base, cell lysates were sonicated until their viscosity disappeared. […]

Cc1cc(C)c(N(C)CC(=O)Nc2nc(-c3ccccn3)c[nH]2)c(C)c1 [WN1316, 2-[mesityl(methyl)amino]-N-[4-(pyridin-2-yl)-1H-imidazol-2-yl] acetamide trihydrochloride]
DNA oxidation (8-OHdG) in lumbar spinal cord ([1]; 10 µg/kg, 21–22 weeks of age): remarkable reduction
IL-1β immunoreactivity in astrocytes ([1]; 10 µg/kg, 21–22 weeks of age): diminished dramatically
iNOS generation in lumbar spinal cord (Western blot) ([1]; 10 µg/kg, 21–22 weeks of age): decreased
large myelinated axons in the L5 ventral root ([1]; 10 µg/kg, 21–22 weeks of age): preservation of large myelinated axons
GFAP and Iba-1 immunoreactivity in lumbar spinal cord anterior horn ([1]; 10 µg/kg, 21–22 weeks of age, vs vehicle): significant reduction
protein levels of mutant SOD1 in NP-40-soluble and NP-40-insoluble/SDS-soluble fractions ([1]; 10 µg/kg, vs vehicle, 21–22 weeks of age): no significant differences
loss of ChAT-positive motor neurons compared with non-Tg littermates ([1]; 10 µg/kg/day, lumbar L4–L5, 21–22 weeks of age (vehicle 35.5%)): 15.2%
skeletal muscle integrity (quadriceps femoris) ([1]; 21–22 weeks of age): preserved the skeletal muscle integrity
mRNA of Nrf2-regulated genes (Nrf2, ATF3, HO-1, GCLM, NQO1, p21, p62) [2]: increased
